According to patent US11583525B2, “Geranylgeranyltransferase I inhibitor for treatment of a PTEN defective cancer” (H. LEE MOFFITT CANCER CENTER AND RESEARCH INSTITUTE, INC., priority 2017, dated 2023):
Peptide text beside a SMILES is read from it. * marks the point of attachment. Cbz = O=C(OCc1ccccc1)*

What was measured:
IP3R3 [1] = assay: IP3R3 stability by immunoblotting in NHFs, HeLa and HEK293T cells incubated with GGTi-2418; assay type: cell-based, human; settings: HeLa, HEK293T cells, 10-15 μM GGTi-2418, NHFs 30 h then cycloheximide and ATP
Method: FIGS. 6A, 6B, 6C, 6D, 6E, 6F, 6G, and 6H that the degradation of IP3R3 is dependent on FBXL2 localization to cell membranes and on the segregase activity of p97. […] Live cell imaging was carried out with an LSM510 confocal microscope using a 63× objective. Scale bars, 10 μm. […] Cells were subsequently harvested at the indicated times for immunoblotting. […] Cells were subsequently harvested for immunoblotting. This experiment was performed once. […] The bracket on the right marks a ladder of bands which, presumably, are ubiquitinated species of IP3R3 that are not degraded when p97 is inhibited. […] Cells were subsequently stimulated with medium containing serum and harvested at the indicated time points for immunoblotting. […] Error bars indicate s.e.m. […] Thus, we propose that, after its FBXL2-mediated ubiquitination, IP3R3 is extracted from cell membranes by the segregase activity of p97 to be degraded by the proteasome. […] 24 h post-transfection, cells were treated with MG132 for 3 h before harvesting for immunoprecipitation and immunoblotting as indicated. This experiment was performed twice. […] Samples were analysed by immunoblotting with the indicated antibodies. […]
Cell culture and transfections. […] All cells grown in culture were periodically monitored for mycoplasma contamination. […]

IP3R3 [2] = assay: Serum-mediated degradation of IP3R3 in serum-starved, serum re-stimulated NHFs (immunoblotting); assay type: cell-based, human; settings: NHFs serum-starved 72 h, re-stimulated with serum; 10 μM MG132, 10 μM Eer1
Method: 24 h post-transfection, cells were treated with MG132 for 3 h before harvesting for immunoprecipitation and immunoblotting as indicated. WCL, whole-cell lysate from untransfected cells. […] After harvesting, cells were lysed, and cell membranes (CM) were isolated and immunoprecipitated with either a normal mouse IgG or an anti-Flag antibody. Subsequently, immunoprecipitates were analysed by immunoblotting as indicated. The results of these experiments (n=2) indicate that FBXL2 is incorporated into a complete SCF ligase that binds its substrate(s) at cellular membranes. […] After harvesting, cells were lysed and cytoplasmic (CYTO) and cell membrane (CM) fractions were isolated and analysed by immunoblotting as indicated. Actin and calnexin are used as markers for cytoplasmic and cell membrane fractions, respectively. This experiment was performed twice. […] 24 h post-transfection, where indicated, cells were treated with MG132 for 3 h before harvesting for immunoprecipitation and immunoblotting. Ned. CUL1, neddylated CUL1. […] The experiment was performed in the presence or absence of MG132 as indicated. Whole-cell lysates were immunoblotted as indicated. The asterisk indicates a non-specific band. This experiment was performed twice. […] P values were calculated by unpaired t-test. Error bars indicate s.e.m. […] Error bars indicate s.e.m. The values represent the ratios between FBXL2 and GAPDH mRNAs. […] Cells were subsequently stimulated with medium containing serum and harvested at the indicated times for immunoblotting. […] Error bars indicate s.e.m. […] Cells were subsequently stimulated with medium containing serum and harvested at the indicated time points for immunoblotting. […] Error bars indicate s.e.m. […] Exon 2 and exon 3 refer to the human FBXL2 gene in NC_000003.12 (GRCh38.p7 (Gene Bank ID: 3129728)). […]
FIGS. 6A, 6B, 6C, 6D, 6E, 6F, 6G, and 6H that the degradation of IP3R3 is dependent on FBXL2 localization to cell membranes and on the segregase activity of p97. […] Samples were analysed by immunoblotting with the indicated antibodies. […]

Compound	IP3R3 stability (IP3R3 [1])	IP3R3 levels / degradation after serum re-stimulation (IP3R3 [2])
Cc1nc[nH]c1CN1CCN(C(=O)N[C@@H](CC(C)C)C(=O)O)[C@@H](Cc2ccccc2)C1=O [GGTi-2418]	stabilizes IP3R3	
CC(C)C[C@@H](C=O)NC(=O)[C@H](CC(C)C)NC(=O)[C@H](CC(C)C)NC(=O)OCc1ccccc1 [MG132] (Cbz-Leu-Leu-Leu-aldehyde)		much less
